Results on 46 compounds are retold here after patent publication US9120744B2, “Plasminogen activator inhibitor-1 inhibitors and methods of use thereof to modulate lipid metabolism” (THE REGENTS OF THE UNIVERSITY OF MICHIGAN, priority 2007, dated 2015).

Structures can show the parent of a compound that is named as a salt.

The target of one assay is T1, recombinant active human PAI-1 (Homo sapiens (Human), UniProt P05121). The assay can be described thus: Fluorometric IC50 plate assay (PAI-1 inhibition of uPA, Z-Gly-Gly-Arg-AMC). The assay is classed as biochemical. Conditions: in vitro, PAI-1 1 nM, uPA 2.5 nM, pH 7.8, 10% DMSO; ND = not detected, e.g. no inhibition.
T1 sequence (P05121 24-402): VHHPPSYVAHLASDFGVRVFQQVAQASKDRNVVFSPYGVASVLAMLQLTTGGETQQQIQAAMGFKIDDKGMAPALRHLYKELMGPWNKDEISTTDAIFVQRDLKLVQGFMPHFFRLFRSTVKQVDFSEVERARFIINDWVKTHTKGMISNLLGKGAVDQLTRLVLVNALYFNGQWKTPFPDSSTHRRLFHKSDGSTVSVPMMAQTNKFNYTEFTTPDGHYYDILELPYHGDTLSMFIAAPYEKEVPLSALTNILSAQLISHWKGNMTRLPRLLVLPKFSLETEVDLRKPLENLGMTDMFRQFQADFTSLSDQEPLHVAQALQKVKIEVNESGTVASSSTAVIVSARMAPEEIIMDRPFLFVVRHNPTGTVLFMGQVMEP
As for `O=C(O[C@H]1CC[C@@H](OC(=O)c2cc(O)c(O)c(O)c2)CC1)c1cc(O)c(O)c(O)c1` [CDE-061], the IC50 (commonly the concentration that inhibits the measured activity by half) turned out to be 0.05 µM. Consider `CC(C)(C)OC(=O)NCC(COC(=O)c1cc(O)c(O)c(O)c1)OC(=O)c1cc(O)c(O)c(O)c1` (stereo not shown) [CDE-075], for which the IC50 is 0.07 µM. Consider `COc1cc(C(=O)OCCOC(=O)c2cc(OC)c(O)c(OC)c2)cc(OC)c1O` [CDE-069], for which the IC50 worked out at 562 µM.

In the case of `O=C(NCCCNC(=O)c1cc(O)c(O)c(O)c1)c1cc(O)c(O)c(O)c1` [CDE-070], the IC50 is 269 µM. Consider `O=C(OCCOC(=O)c1cccc(OC(=O)c2cc(O)c(O)c(O)c2)c1)c1cccc(OC(=O)c2cc(O)c(O)c(O)c2)c1` [CDE-041], for which the half-maximal inhibitory concentration (IC50) turned out to be 47.9 µM. For the compound `O=C(NCCNC(=O)c1cc(O)c(O)c(O)c1)c1cc(O)c(O)c(O)c1` [CDE-044], the IC50 was found to be 900 µM. In the case of `COc1cc(C(=O)N(C)CCN(C)C(=O)c2cc(OC)c(O)c(OC)c2)cc(OC)c1O` [CDE-064], the IC50 was 2200 µM. In the case of `O=C(OCCOC(=O)c1ccc(O)cc1O)c1ccc(O)cc1O` [CDE-051], the 50% inhibitory concentration (IC50) is 28.7 µM. `CN(N(C)S(=O)(=O)c1ccc(O)c(O)c1)S(=O)(=O)c1ccc(O)c(O)c1` [CDE-068]: the half-inhibitory concentration (IC50) came out at 32.7 µM. Regarding `O=S(=O)(NNS(=O)(=O)c1ccc(O)cc1)c1ccc(O)cc1` [CDE-072], the half-maximal inhibitory concentration (IC50) was found to be 104 µM. `COc1cc(C(=O)N2CCN(C(=O)c3cc(OC)c(O)c(OC)c3)CC2)cc(OC)c1O` [CDE-065]: the IC50 was determined as 423 µM. Take `O=C(NCCNC(=O)c1ccc(O)c([N+](=O)[O-])c1)c1ccc(O)c([N+](=O)[O-])c1` [CDE-060]: the IC50 was 236 µM. The same measure, in the same setting: the same measure for `O=S(=O)(c1ccc(O)c(O)c1)N1CCCCN1S(=O)(=O)c1ccc(O)c(O)c1` [CDE-074]: 1.71 µM. For `O=C(c1cc(O)c(O)c(O)c1)N1CCN(C(=O)c2cc(O)c(O)c(O)c2)CC1` [CDE-055], the IC50 was found to be 27.5 µM.

The next assay concerns the target T1, recombinant active human PAI-1. Description: pH dependence of PAI-1 inhibition, fluorogenic uPA (or tPA) assay. Conditions: pH 6.5 to 8.5. The assay is classed as biochemical.
For `Oc1c(Cl)cc(Cl)c(Cl)c1Cc1c(O)c(Cl)cc(Cl)c1Cl` [hexachlorophene], the “effect of pH on PAI-1 inhibition (in words)” value is listed as “did not improve at pH 8.5 compared to pH 7.5”. In the case of `COc1ccc(S(=O)(=O)NCCNS(=O)(=O)c2ccc(OC)c(OC)c2)cc1OC` [CDE-029], the “effect of pH on PAI-1 inhibition (in words)” value is on record as “increased with increasing pH”. For the compound `CCN(CCN(CC)S(=O)(=O)c1ccc(OC)c(OC)c1)S(=O)(=O)c1ccc(OC)c(OC)c1` [CDE-030], the “effect of pH on PAI-1 inhibition (in words)” value is listed as “increased with increasing pH”.

The assay is the same for the next values; noted with them: pH 7.5 (FIG. 8); additional experiments.
Consider `O=C(OC[C@H]1O[C@@H](OC(=O)c2cc(OCc3ccccc3)c(OCc3ccccc3)c(OCc3ccccc3)c2)[C@H](OC(=O)c2cc(OCc3ccccc3)c(OCc3ccccc3)c(OCc3ccccc3)c2)[C@@H](OC(=O)c2cc(OCc3ccccc3)c(OCc3ccccc3)c(OCc3ccccc3)c2)[C@H]1OC(=O)c1cc(OCc2ccccc2)c(OCc2ccccc2)c(OCc2ccccc2)c1)c1cc(OCc2ccccc2)c(OCc2ccccc2)c(OCc2ccccc2)c1` [CDE-006], for which the “PAI-1 inhibitory efficacy (in words)” value is reported as “not inhibitory”. As to `O=C(OC[C@H]1O[C@@H](OC(=O)c2cc(O)c(O)c(O)c2)[C@H](OC(=O)c2cc(O)c(O)c(O)c2)[C@@H](OC(=O)c2cc(O)c(O)c(O)c2)[C@H]1OC(=O)c1cc(O)c(O)c(O)c1)c1cc(O)c(O)c(O)c1` [CDE-004], the “PAI-1 inhibitory efficacy (in words)” value is reported as “effective PAI-1 inhibitors”. On the same count and under the same terms, the same measure for `O=C(OC[C@H]1O[C@@H](OC(=O)c2cc(O)c(O)c(O)c2)[C@@H](OC(=O)c2cc(O)c(O)c(O)c2)[C@@H](OC(=O)c2cc(O)c(O)c(O)c2)[C@@H]1OC(=O)c1cc(O)c(O)c(O)c1)c1cc(O)c(O)c(O)c1` [CDE-002]: “effective PAI-1 inhibitors”. For `O=C(OC[C@H]1O[C@H](OC(=O)c2cc(OCc3ccccc3)c(OCc3ccccc3)c(OCc3ccccc3)c2)[C@H](OC(=O)c2cc(OCc3ccccc3)c(OCc3ccccc3)c(OCc3ccccc3)c2)[C@@H](OC(=O)c2cc(OCc3ccccc3)c(OCc3ccccc3)c(OCc3ccccc3)c2)[C@H]1OC(=O)c1cc(OCc2ccccc2)c(OCc2ccccc2)c(OCc2ccccc2)c1)c1cc(OCc2ccccc2)c(OCc2ccccc2)c(OCc2ccccc2)c1` [CDE-007], the “PAI-1 inhibitory efficacy (in words)” value was “not inhibitory”.

Regarding `COc1ccc(S(=O)(=O)NCCNS(=O)(=O)c2ccc(OC)c(OC)c2)cc1OC` [CDE-029], the “PAI-1 inhibitory efficacy (in words)” value is “effective inhibitors of PAI-1”. On to `O=C(OC[C@H]1O[C@H](OC(=O)c2cc(O)c(O)c(O)c2)[C@H](OC(=O)c2cc(O)c(O)c(O)c2)[C@@H](OC(=O)c2cc(O)c(O)c(O)c2)[C@H]1OC(=O)c1cc(O)c(O)c(O)c1)c1cc(O)c(O)c(O)c1` [CDE-003], for which the “PAI-1 inhibitory efficacy (in words)” value was “effective PAI-1 inhibitors”. In the case of `O=C(OC[C@H]1OC(OC(=O)c2cc(O)c(O)c(O)c2)[C@H](OC(=O)c2cc(O)c(O)c(O)c2)[C@@H](OC(=O)c2cc(O)c(O)c(O)c2)[C@@H]1OC(=O)c1cc(O)c(O)c(O)c1)c1cc(O)c(O)c(O)c1` (stereo partly shown) [CDE-001], the “PAI-1 inhibitory efficacy (in words)” value was “effective PAI-1 inhibitors”. On to `CCN(CCN(CC)S(=O)(=O)c1ccc(OC)c(OC)c1)S(=O)(=O)c1ccc(OC)c(OC)c1` [CDE-030], for which the “PAI-1 inhibitory efficacy (in words)” value was “effective inhibitors of PAI-1”.

The target is the same in another assay. The assay can be described thus: β-trypsin screening assay for PAI-1 inhibitors.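 Note: fluorogenic readout with PAI-1 and β-trypsin at 10:1 molar ratio, untreated PAI-1 wells set as 100% PAI-1 activity and β-trypsin alone as 0%.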 The assay is classed as biochemical. Conditions: 10 μM compound; hit = more than 3 standard deviations above control.
Regarding `Oc1c(Cl)cc(Cl)c(Cl)c1Cc1c(O)c(Cl)cc(Cl)c1Cl` [hexachlorophene], the “screening hit: restoration of β-trypsin activity” value (from here on “screening hit: restoration”) is “demonstrate PAI-1 inhibitor activity”. For `O=C(O)c1cc(O)c2c(c1)[C@H]([C@H]1c3cc(C(=O)O)cc(O)c3C(=O)c3c(O[C@@H]4O[C@H](CO)[C@@H](O)[C@H](O)[C@H]4O)cccc31)c1cccc(O[C@@H]3O[C@H](CO)[C@@H](O)[C@H](O)[C@H]3O)c1C2=O` [SENNOSIDE A], the “screening hit: restoration” value is on record as “demonstrate PAI-1 inhibitor activity”. For `CCN(CC)CCOC(=O)C(c1ccccc1)C1CCCCC1` (stereo not shown) [DROFENINE HYDROCHLORIDE], the “screening hit: restoration” value is listed as “demonstrate PAI-1 inhibitor activity”.

Consider `Clc1ccc(CONC(Cn2ccnc2)c2ccc(Cl)cc2Cl)c(Cl)c1.O=[N+]([O-])O` (stereo not shown) [OXICONAZOLE NITRATE], for which the “screening hit: restoration” value is listed as “demonstrate PAI-1 inhibitor activity”. As to `Oc1cc2c(cc1O)C1c3ccc(O)c(O)c3OCC1(O)C2` (stereo not shown) [HAEMATOXYLIN], the “screening hit: restoration” value is listed as “demonstrate PAI-1 inhibitor activity”. As to `CCOC(=O)C1=C(C)N=C(C)/C(=C(/O)OCC)C1c1ccccc1/C=C/C(=O)OC(C)(C)C` (stereo not shown) [LACIDIPINE], the “screening hit: restoration” value is “demonstrate PAI-1 inhibitor activity”. For the compound `C=CC1=C(C(=O)O)N2C(=O)[C@@H](NC(=O)C(NOCC(=O)O)c3csc(N)n3)[C@H]2SC1` (stereo partly shown) [CEFIXIME TRIHYDRATE], the “screening hit: restoration” value is “demonstrate PAI-1 inhibitor activity”. Turning to `O=C(Oc1cc(O)cc2c1C[C@@H](OC(=O)c1cc(O)c(O)c(O)c1)[C@@H](c1cc(O)c(O)c(O)c1)O2)c1cc(O)c(O)c(O)c1` [EPIGALLOCATECHIN 3,5-DIGALLATE], the “screening hit: restoration” value is reported as “demonstrate PAI-1 inhibitor activity”. Still for that read-out and setting: the same measure for `CC(=O)Oc1cccc(C(=O)O)c1OC(C)=O` [DIPYROCETYL]: “demonstrate PAI-1 inhibitor activity”; for `COc1ccccc1OCCNCC(O)COc1cccc2[nH]c3ccccc3c12` (stereo not shown) [Carvedilol]: “demonstrate PAI-1 inhibitor activity”; for `CCOC(=O)C1(O)Oc2cc(OC)cc(OC)c2C(=O)C1c1ccccc1` (stereo not shown) [2-ETHOXYCARBONYL-2-HYDROXY-5,7-DIMETHOXYISOFLAVANONE]: “demonstrate PAI-1 inhibitor activity”.

Turning to `O=C(O)c1cc(O)c(=O)c2c(O)c(O)ccc2c1` [7-DESHYDROXYPYROGALLIN-4-CARBOXYLIC ACID], the “screening hit: restoration” value was “demonstrate PAI-1 inhibitor activity”. As to `c1ccc(-c2ccc(C(c3ccccc3)n3ccnc3)cc2)cc1` (stereo not shown) [BIFONAZOLE], the “screening hit: restoration” value is reported as “demonstrate PAI-1 inhibitor activity”. For the compound `CCN(CC)CCNC(=O)c1ccc(N)cc1` [PROCAINAMIDE HYDROCHLORIDE], the “screening hit: restoration” value is listed as “demonstrate PAI-1 inhibitor activity”. In the case of `COc1ccc(-c2coc3cc(O)ccc3c2=O)c(O)c1O` [KOPARIN], the “screening hit: restoration” value was “demonstrate PAI-1 inhibitor activity”. Consider `O=C1c2ccc(O)c(O)c2C(=O)c2c(O)ccc(O)c21` [QUINALIZARIN, quinalizarin], for which the “screening hit: restoration” value is “demonstrate PAI-1 inhibitor activity”. As for `O=C1[C@H](CC[C@H](O)c2ccc(F)cc2)[C@@H](c2ccc(O)cc2)N1c1ccc(F)cc1` [EZETIMIBE], the “screening hit: restoration” value is “demonstrate PAI-1 inhibitor activity”. On to `CS(=O)(=O)O.Oc1ccc(C2CNCCc3c2cc(O)c(O)c3Cl)cc1` (stereo not shown) [FENOLDOPAM MESYLATE], for which the “screening hit: restoration” value is reported as “demonstrate PAI-1 inhibitor activity”.

`CN1[C@H]2CCC[C@H]1CC(NC(=O)c1nn(C)c3ccccc13)C2.Cl` (stereo partly shown) [GRANISETRON HCl]: the “screening hit: restoration” value is listed as “demonstrate PAI-1 inhibitor activity”.

As for `CC1=C(O)C(=O)C=C2C1=CC=C1[C@@]2(C)CC[C@@]2(C)[C@@H]3C[C@](C)(C(=O)O)CC[C@]3(C)CC[C@]12C` [CELASTROL], the “screening hit: restoration” value is “demonstrate PAI-1 inhibitor activity”. `O=c1c(-c2ccccc2)coc2cc(O)cc(O)c12` [5,7-DIHYDROXYISOFLAVONE]: the “screening hit: restoration” value is recorded as “demonstrate PAI-1 inhibitor activity”.

For `CC(C)(C)NC[C@H](O)c1ccc(O)c(CO)c1` [LEVALBUTEROL HYDROCHLORIDE], the “screening hit: restoration” value is given as “demonstrate PAI-1 inhibitor activity”. With `O=C(OC1Cc2c(O)cc(O)cc2O[C@@H]1c1cc(O)c(O)c(O)c1-c1c([C@@H]2Oc3cc(O)cc(O)c3C[C@@H]2OC(=O)c2cc(O)c(O)c(O)c2)cc(O)c(O)c1O)c1cc(O)c(O)c(O)c1` (stereo partly shown) [2′,2′-BISEPIGAL[…]], the “screening hit: restoration” value is on record as “demonstrate PAI-1 inhibitor activity”. Consider `COc1ccc(CCN(C)CCC[C@](C#N)(c2ccc(OC)c(OC)c2)C(C)C)cc1OC` [Benzeneacetonitrile, Alpha-[3-[[2-(3,4-dimethoxyphenyl)ethyl]methylamino]propyl]-3,4-dimethoxy-Alpha-(1-methylethyl)-, (R)-], for which the “screening hit: restoration” value is reported as “demonstrate PAI-1 inhibitor activity”.
